Assay results reported in patent US20210161189A1, “MONOESTER SUGAR DERIVATIVES AS FLAVOR MODIFIERS” (Firmenich SA, priority 2018, published 2021).

Key:
Type in all cases: in vivo, human
[1] = tested on: sensory panel; experiment: Sensory panel, dairy test composition (milk sweetened with 3% w/v sucrose); settings: 100 ppm in milk sweetened with 3% sucrose; panel score
Description: Glucose-6-O-octanoate, manufactured according to the methods described in Example 1 above was added to a dairy test composition (milk sweetened with 3% w/v sucrose), to result in a final concentration of 100 ppm in the test composition. In parallel, a control composition, comprising milk sweetened with 3% w/v sucrose was also generated. A sensory panel consisting of between 6 to 8 persons compared the overall flavor, sweetness, acidity, bitterness, astringency, off-notes, and long-lastingness of the sweetness of the dairy test composition containing 100 ppm glucose-6-O-octanoate and the control composition. The results were analyzed using the Duncan comparison test.

[2] = tested on: sensory panel; experiment: Sensory panel, coffee composition (Emmi Noir coffee, containing milk); settings: 200 ppm in coffee containing milk; panel score
Description: (§1) Next, glucose-6-O-octanoate was added to a coffee composition (Emmi Noir coffee, containing milk), to result in a final concentration of 200 ppm in the test composition. In parallel, a control composition, comprising Emmi Noir coffee, containing milk was also generated. A sensory panel consisting of between 6 to 8 persons compared the overall flavor, sweetness, acidity, bitterness, astringency, off-notes, and long-lastingness of the sweetness of the test composition and the control composition. The results were analyzed using the Duncan comparison test.

[3] = tested on: sensory panel; experiment: Sensory panel, strawberry flavored bottled water (BWAT) containing 7% w/v sucrose; settings: 100 ppm in strawberry BWAT 7% sucrose; panel score
Description: Next, glucose-6-O-octanoate was added to a fruit flavored bottled water test composition (strawberry flavored water, containing 7% w/v sucrose), to result in a final concentration of 100 ppm in the test composition.

[4] = tested on: sensory panel; experiment: Sensory panel, lemon flavored alcoholic beverage; design: scale not given here; settings: panel score
Description: (§2) […] In parallel, a control composition, comprising lemon flavored alcoholic beverage was also generated. A sensory panel consisting of between 6 to 8 persons compared the overall flavor, sweetness, acidity, bitterness, astringency, off-notes, and long-lastingness of the sweetness of the test composition and the control composition. The results were analyzed using the Duncan comparison test.

[5] = tested on: sensory panel; experiment: Sensory panel, pomegranate juice; settings: 100 ppm in pomegranate juice; panel score
Description: as §1, with “pomegranate juice composition,” for “coffee composition (Emmi Noir coffee, containing milk),”, “100” for “200”, “pomegranate juice” for “Emmi Noir coffee, containing milk”

[6] = tested on: sensory panel; experiment: Sensory panel, energy drink; design: scale not given here; settings: panel score
Description: as §2, with “energy drink composition” for “composition, comprising lemon flavored alcoholic beverage”

[7] = tested on: sensory panel; experiment: Sensory panel, raspberry flavored water; design: scale not given here; settings: panel score
Description: as §2, with “raspberry” for “lemon”, “water” for “alcoholic beverage”

[8] = tested on: sensory panel; experiment: Sensory panel, orange flavored test composition; settings: 200 ppm in orange flavored test composition, panel score
Description: as §1, with “an orange flavored test composition,” for “a coffee composition (Emmi Noir coffee, containing milk),”, “orange flavor” for “Emmi Noir coffee, containing milk”

[9] = 100 ppm in lemon flavored alcoholic beverage
[10] = 200 ppm in lemon flavored alcoholic beverage

With `CCCCCCCC(=O)OC[C@@H](O)[C@@H](O)[C@H](O)[C@@H](O)C=O` [glucose-6-O-octanoate] the Acidity [1] was 0, the Astringency [1] was 0.6 and the Bitterness [1] was 0.8. The Long-Lasting [1] was 1.4, the “Overall Flavor” value [1] was 1.8 and the Acidity [2] was 0.17. The Bitterness [2] was 1.92, the “Long-lasting (sweet)” value [2] was 1.83 and the Off-notes [2] was 0.33. The Overall Flavor [2] was 3.17, the Astringency [3] was 0.5 and the Long-Lasting [3] was 0.92. For the same compound, the Off-notes [3] was 0.33, the “Overall Flavor” value [3] was 3 and the Sweetness [3] was 4.08. For the same compound, the Acidity [4, 9] was 2, the Astringency [4, 9] was 1 and the Off-notes [4, 9] was 0.25. The “Overall Flavor” value [4, 9] was 3.5, the Sweetness [4, 9] was 3 and the Acidity [4, 10] was 2. For the same compound, the Astringency [4, 10] was 2, the Bitterness [4, 10] was 1.1 and the Long-Lasting [4, 10] was 1.6. The Off-notes [4, 10] was 0.4, the “Overall Flavor” value [4, 10] was 2.3 and the Long-Lasting [5] was 1.75. The Off-notes [5] was 0.62, the “Overall Flavor” value [5] was 3.38 and the Acidity ([6]; 100 ppm in energy drink) was 2.17. It also gave an Astringency ([6]; 100 ppm in energy drink) of 0.67, a Bitterness ([6]; 100 ppm in energy drink) of 0.83 and a Long-Lasting ([6]; 100 ppm in energy drink) of 2. For the same compound, the “Overall Flavor” value ([6]; 100 ppm in energy drink) was 3.33, the Acidity ([6]; 200 ppm in energy drink) was 2.5 and the Astringency ([6]; 200 ppm in energy drink) was 0.29. The Bitterness ([6]; 200 ppm in energy drink) was 0.93, the Off-notes ([6]; 200 ppm in energy drink) was 0.21 and the “Overall Flavor” value ([6]; 200 ppm in energy drink) was 3.5. It also gave an Astringency ([7]; 100 ppm in raspberry water) of 0.58, a Bitterness ([7]; 100 ppm in raspberry water) of 0.5 and a Long-Lasting ([7]; 100 ppm in raspberry water) of 0.67. For the same compound, the “Overall Flavor” value ([7]; 100 ppm in raspberry water) was 3.33, the Sweetness ([7]; 100 ppm in raspberry water) was 3.42 and the Acidity ([7]; 200 ppm in raspberry water) was 2.62. The Long-Lasting ([7]; 200 ppm in raspberry water) was 1.81, the “Overall Flavor” value ([7]; 200 ppm in raspberry water) was 3.06 and the Sweetness ([7]; 200 ppm in raspberry water) was 2.69. For the same compound, the Acidity [8] was 2.07, the Astringency [8] was “decreasing” and the Bitterness [8] was “decreasing the perceived bitterness”. The Long-Lasting [8] was 0.29, the Off-notes [8] was 0.14 and the “Overall Flavor” value [8] was 3. The Sweetness [8] was 2.79, the Astringency ([8]; listed as 71007) was 1 B and the Bitterness ([8]; listed as 71007) was 1.07 B.
